Measurements: ChEMBL document CHEMBL1201862, “PubChem BioAssay data set” (2004)
The source made the active and inactive calls.

Assays:
[1] = target: Long-chain-fatty-acid--AMP ligase FadD28 (Mycobacterium tuberculosis, UniProt P9WQ59); test: Fluorescence polarization aasay to screen for inhibitors that compete for the binding of FadD28 to a bisubstrate Measured in Biochemical System Using Plate Reader - 2147-01_Inhibitor_Dose_CherryPick_Activity.; assay type: functional, Mycobacterium tuberculosis H37Rv
[2] = target: SWI/SNF-related matrix-associated actin-dependent regulator of chromatin subfamily A member 2 (Homo sapiens, UniProt P51531); test: Luminescence-based cell-based high throughput dose response assay to identify activators of the function of SWI/SNF related, matrix associated, actin dependent regulator of chromatin, subfamily a, member 2 (SMARCA2, BRM).; assay type: functional
[3] = target: Hepatocyte nuclear factor 4-alpha (Homo sapiens, UniProt P41235); assay type: functional, cell-based;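 note: biochemical luminescence-based dose-response counterscreen measuring inhibition of HNF4 dimerization, run alongside a screen for blockers of ABHD5–perilipin-5 interaction; split luciferase complementation of HNF4 fusion proteins in cell lysate measuring dimerization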
[4] = target: Albumin (Bos taurus, UniProt P02769); test: Counterscreen for inhibitors of T-cell receptor (TCR)-CD3 interaction: Fluorescence-based biochemical high throughput dose response assay to identify inhibitors of T-cell receptor (TCR)-CD3 interaction using a TAMRA-labeled BSA probe.; assay type: functional
[5] = Counterscreen for activators of the function of SWI/SNF related, matrix associated, actin dependent regulator of chromatin, subfamily a, member 2 (SMARCA2, BRM): Luminescence-based cell-based high throughput dose response assay to identify non-selective compounds using the VP16 reporter assay.; assay type: functional
[6] = target: T1, Sentrin-specific protease 1 (Homo sapiens, UniProt Q9P0U3); test: SENP1 catalytic domain blockers, concentration series – biochemical, kinetic FRET, dose response (AID 651697); assay type: functional; settings: read-out: IC50_Mean
T1 sequence (Q9P0U3 whole entry): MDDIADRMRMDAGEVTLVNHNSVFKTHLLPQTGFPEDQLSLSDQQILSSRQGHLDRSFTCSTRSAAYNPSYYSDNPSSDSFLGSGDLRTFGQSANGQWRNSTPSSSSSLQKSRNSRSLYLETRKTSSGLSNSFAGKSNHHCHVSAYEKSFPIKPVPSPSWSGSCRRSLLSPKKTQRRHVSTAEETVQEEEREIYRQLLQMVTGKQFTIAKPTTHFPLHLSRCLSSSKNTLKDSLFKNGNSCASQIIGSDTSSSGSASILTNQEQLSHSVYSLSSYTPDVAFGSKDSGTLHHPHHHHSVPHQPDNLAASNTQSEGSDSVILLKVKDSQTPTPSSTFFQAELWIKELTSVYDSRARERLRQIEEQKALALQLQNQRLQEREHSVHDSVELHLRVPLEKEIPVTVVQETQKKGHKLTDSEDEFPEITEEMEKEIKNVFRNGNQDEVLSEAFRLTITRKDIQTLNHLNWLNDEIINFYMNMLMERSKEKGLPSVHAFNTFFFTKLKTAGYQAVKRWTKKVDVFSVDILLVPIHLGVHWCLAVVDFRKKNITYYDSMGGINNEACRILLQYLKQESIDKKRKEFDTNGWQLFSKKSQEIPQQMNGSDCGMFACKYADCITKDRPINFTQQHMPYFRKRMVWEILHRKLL

[7] = target: T2, DNA repair and recombination protein RAD54-like (Homo sapiens, UniProt Q92698); test: RAD54 Holliday junction migration blockers – biochemical, fluorescence, cherry-picked samples, dose series, confirmation (AID 651657); assay type: functional
T2 sequence (Q92698 whole entry): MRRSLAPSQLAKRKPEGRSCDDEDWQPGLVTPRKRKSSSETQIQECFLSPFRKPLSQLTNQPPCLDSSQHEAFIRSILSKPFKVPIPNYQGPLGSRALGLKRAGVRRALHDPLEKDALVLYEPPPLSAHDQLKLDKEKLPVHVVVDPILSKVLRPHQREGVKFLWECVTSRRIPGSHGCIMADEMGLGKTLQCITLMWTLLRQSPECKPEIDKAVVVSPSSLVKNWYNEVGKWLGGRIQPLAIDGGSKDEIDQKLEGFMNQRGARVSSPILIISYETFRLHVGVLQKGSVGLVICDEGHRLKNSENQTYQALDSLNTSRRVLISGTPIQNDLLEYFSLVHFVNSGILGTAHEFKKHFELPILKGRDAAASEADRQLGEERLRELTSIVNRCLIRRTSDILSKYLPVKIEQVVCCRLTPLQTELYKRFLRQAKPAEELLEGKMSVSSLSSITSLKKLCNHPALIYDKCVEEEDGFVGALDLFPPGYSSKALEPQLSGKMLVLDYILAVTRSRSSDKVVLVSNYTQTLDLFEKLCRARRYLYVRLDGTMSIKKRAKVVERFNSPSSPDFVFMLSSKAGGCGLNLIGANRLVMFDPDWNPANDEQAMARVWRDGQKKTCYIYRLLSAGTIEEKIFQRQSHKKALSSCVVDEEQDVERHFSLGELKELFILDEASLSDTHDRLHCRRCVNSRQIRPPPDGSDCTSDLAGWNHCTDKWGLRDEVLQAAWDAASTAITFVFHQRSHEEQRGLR

[8] = target: T1, Sentrin-specific protease 1; test: Dose response confirmation of small molecule inhibitors of the catalytic domain of the SUMO protease, SENP1 in a FRET assay.; assay type: functional; settings: read-out: IC50_Mean
[9] = target: Adenosylmethionine-8-amino-7-oxononanoate aminotransferase (Mycobacterium tuberculosis, UniProt P9WQ81); test: Mycobacterium tuberculosis BioA enzyme inhibitor Measured in Biochemical System Using Plate Reader - 2163-02_Inhibitor_Dose_CherryPick_Activity.; assay type: functional, Mycobacterium tuberculosis UT205
[10] = inhibition of ARNT PAS-B/TACC3 complex formation – biochemical, AlphaScreen, cherry-picked samples, confirmation (AID 651703); assay type: functional, Homo sapiens;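 note: His-tagged ARNT PAS-B domain paired with GST-TACC3 E629A dimer coactivator fragment; potency of inhibitors that break up the complex and lower AlphaScreen signal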
[11] = target: Beta-galactosidase (Escherichia coli, UniProt Q8VNN2); test: Dose response counterscreen for EBI2 assay utilizing the enzyme, b-galactosidase.; assay type: functional
[12] = microbe, parasite or virus in culture; assay type: functional; settings: Mycobacterium tuberculosis
[13] = target: Beta Lactamase (Pseudomonas aeruginosa, UniProt Q932Y6); test: BLA reporter interference, concentration series – BLA reporter cells, FRET fluorescence, artefact control for NOD2-RIPK2 interaction inhibitor project, dose response (AID 651552); assay type: functional, cell-based
[14] = Fluorescence-based cell-based high throughput dose response assay for inhibitors of the interaction of nucleotide-binding oligomerization domain containing 2 (NOD2) and the receptor-interacting serine-threonine kinase 2 (RIPK2).; assay type: functional; settings: Homo sapiens
[15] = general mammalian cell viability loss – inhibitor set, cherry-pick, set 2, cytotoxicity control for miR-122 modulator project, dose response (AID 720697); assay type: functional, cell-based
[16] = HGIII-sPLA2 enzyme inhibition potency – biochemical, QFRET, IC50, dose response (AID 743457);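 note: green fluorescence rise as the enzyme cleaves BODIPY PC-A2 in liposomes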
[17] = target: Fructose-bisphosphate aldolase (Mycobacterium tuberculosis, UniProt P9WQA3); test: Fluorescence-based biochemical high throughput dose response assay for inhibitors of the fructose-bisphosphate aldolase (FBA) of M. tuberculosis.; assay type: functional
[18] = target: Tyrosyl-DNA phosphodiesterase 2 (Homo sapiens, UniProt O95551); test: potency against TDP2 phosphodiesterase activity – biochemical, epi absorbance, IC50, dose response (AID 743297)
[19] = target: Peroxisome proliferator-activated receptor gamma/Nuclear receptor coactivator 2 (Homo sapiens, UniProt P37231); test: (§1) TR-FRET dose response biochemical High Throughput Screening assay for agonists of the steroid receptor coactivator 2 (SRC-2) recruitment by the peroxisome proliferator-activated receptor gamma (PPAR gamma): non-selective agonists. [Related pubchem assays: 1297, 1032 ]; assay type: functional
[20] = target: Peroxisome proliferator-activated receptor gamma/Nuclear receptor coactivator 1 (Homo sapiens, UniProt P37231); test: as §1, with “1 (SRC-1)” for “2 (SRC-2)”, “assays (depositor defined):AID1300, AID1808, AID504735, AID631]” for “assays: 1297, 1032 ]”; assay type: protein assay
[21] = target: Peroxisome proliferator-activated receptor gamma/Nuclear receptor coactivator 3 (Homo sapiens, UniProt P37231); test: as §1, with “3 (SRC-3)” for “2 (SRC-2)”, “1301 (Confirmation screen.), 1048 (Primary screen.)]” for “1297, 1032 ]”; assay type: functional
[22] = Counterscreen for inhibitors of Trypanosoma brucei methionyl tRNA synthetase (MetRS): Luminescence-based cell-based high throughput dose response assay to identify compounds that are cytotoxic to Jurkat human T lymphocyte cells.; assay type: functional
[23] = target: Galanin receptor type 3 (Homo sapiens, UniProt O60755); test: Fluorescence-based cell-based primary high throughput dose response assay to identify antagonists of the Galanin Receptor 3 (GalR3).; assay type: functional
[24] = cells; assay type: functional, cell-based; settings: HEK-CNG
[25] = target: T3, Endoribonuclease toxin MazF (Escherichia coli K-12, UniProt P0AE70); test: substrate-only fluorescence increase artefacts – biochemical, single-stranded RNase substrate, counter-screen for MazEF activator project, dose response (AID 588502); assay type: functional
T3 sequence (P0AE70 whole entry): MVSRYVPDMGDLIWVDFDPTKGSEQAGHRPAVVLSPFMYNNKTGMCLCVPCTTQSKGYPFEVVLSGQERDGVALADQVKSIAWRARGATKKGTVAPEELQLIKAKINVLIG

[26] = target: T3, Endoribonuclease toxin MazF; test: activation of MazEF endoribonuclease cleavage – biochemical, fluorescence, single-stranded RNA substrate, uHTS hits, dose response (AID 588481); assay type: functional

Sequence of Fructose-bisphosphate aldolase (P9WQA3 whole entry): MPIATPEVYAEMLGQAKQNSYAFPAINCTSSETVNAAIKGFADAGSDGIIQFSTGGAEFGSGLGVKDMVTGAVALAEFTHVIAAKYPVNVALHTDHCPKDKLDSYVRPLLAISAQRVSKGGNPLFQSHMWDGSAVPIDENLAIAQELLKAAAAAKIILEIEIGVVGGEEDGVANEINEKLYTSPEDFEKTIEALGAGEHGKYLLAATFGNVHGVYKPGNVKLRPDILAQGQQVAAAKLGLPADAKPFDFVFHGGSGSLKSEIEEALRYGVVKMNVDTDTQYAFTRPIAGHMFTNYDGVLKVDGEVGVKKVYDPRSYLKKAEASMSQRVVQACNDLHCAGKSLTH
Sequence of Albumin (P02769 whole entry): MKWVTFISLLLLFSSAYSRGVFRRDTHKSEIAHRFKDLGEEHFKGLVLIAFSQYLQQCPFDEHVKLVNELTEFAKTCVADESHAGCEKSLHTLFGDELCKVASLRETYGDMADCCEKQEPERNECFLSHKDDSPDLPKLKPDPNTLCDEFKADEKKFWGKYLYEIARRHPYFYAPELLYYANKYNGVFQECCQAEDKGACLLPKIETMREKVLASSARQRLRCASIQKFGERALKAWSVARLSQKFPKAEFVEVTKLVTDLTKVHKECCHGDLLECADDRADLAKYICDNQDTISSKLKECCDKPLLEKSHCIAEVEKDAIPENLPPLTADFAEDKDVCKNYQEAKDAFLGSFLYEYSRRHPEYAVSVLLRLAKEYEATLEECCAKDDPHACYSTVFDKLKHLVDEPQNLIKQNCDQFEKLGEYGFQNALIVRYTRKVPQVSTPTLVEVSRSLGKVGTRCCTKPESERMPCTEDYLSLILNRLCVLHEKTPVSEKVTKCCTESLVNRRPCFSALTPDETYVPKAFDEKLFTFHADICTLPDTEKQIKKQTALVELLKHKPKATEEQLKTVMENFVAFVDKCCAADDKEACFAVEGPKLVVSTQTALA
Sequence of Hepatocyte nuclear factor 4-alpha (P41235 whole entry, the tested form may be a part): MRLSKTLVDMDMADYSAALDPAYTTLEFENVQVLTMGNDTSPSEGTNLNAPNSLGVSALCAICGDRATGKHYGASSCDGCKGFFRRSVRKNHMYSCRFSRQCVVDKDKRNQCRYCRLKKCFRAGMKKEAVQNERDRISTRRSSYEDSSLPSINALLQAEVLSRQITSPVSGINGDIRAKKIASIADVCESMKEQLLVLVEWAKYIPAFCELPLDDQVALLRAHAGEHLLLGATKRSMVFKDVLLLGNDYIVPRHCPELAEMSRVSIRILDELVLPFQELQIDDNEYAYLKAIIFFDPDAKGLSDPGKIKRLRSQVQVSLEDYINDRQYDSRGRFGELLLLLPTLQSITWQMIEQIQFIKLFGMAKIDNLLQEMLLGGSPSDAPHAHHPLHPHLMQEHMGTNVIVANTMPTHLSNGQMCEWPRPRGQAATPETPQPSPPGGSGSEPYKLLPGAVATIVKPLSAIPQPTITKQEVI
Sequence of Long-chain-fatty-acid--AMP ligase FadD28 (P9WQ59 whole entry): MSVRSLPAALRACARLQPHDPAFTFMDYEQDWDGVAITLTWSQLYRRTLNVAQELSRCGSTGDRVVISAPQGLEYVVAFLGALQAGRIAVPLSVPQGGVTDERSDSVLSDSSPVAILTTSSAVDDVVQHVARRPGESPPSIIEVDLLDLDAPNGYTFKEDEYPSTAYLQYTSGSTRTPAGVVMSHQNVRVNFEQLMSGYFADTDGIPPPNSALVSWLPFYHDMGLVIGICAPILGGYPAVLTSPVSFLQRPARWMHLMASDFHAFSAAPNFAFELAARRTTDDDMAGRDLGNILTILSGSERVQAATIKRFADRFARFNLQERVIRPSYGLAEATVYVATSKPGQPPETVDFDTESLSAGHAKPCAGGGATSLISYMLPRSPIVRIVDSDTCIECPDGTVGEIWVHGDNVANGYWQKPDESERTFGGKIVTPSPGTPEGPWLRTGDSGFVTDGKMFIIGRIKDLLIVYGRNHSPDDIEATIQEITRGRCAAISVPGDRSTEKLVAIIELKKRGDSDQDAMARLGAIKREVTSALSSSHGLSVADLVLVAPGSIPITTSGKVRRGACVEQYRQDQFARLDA
Sequence of SWI/SNF-related matrix-associated actin-dependent regulator of chromatin subfamily A member 2 (P51531 whole entry, the tested form may be a part): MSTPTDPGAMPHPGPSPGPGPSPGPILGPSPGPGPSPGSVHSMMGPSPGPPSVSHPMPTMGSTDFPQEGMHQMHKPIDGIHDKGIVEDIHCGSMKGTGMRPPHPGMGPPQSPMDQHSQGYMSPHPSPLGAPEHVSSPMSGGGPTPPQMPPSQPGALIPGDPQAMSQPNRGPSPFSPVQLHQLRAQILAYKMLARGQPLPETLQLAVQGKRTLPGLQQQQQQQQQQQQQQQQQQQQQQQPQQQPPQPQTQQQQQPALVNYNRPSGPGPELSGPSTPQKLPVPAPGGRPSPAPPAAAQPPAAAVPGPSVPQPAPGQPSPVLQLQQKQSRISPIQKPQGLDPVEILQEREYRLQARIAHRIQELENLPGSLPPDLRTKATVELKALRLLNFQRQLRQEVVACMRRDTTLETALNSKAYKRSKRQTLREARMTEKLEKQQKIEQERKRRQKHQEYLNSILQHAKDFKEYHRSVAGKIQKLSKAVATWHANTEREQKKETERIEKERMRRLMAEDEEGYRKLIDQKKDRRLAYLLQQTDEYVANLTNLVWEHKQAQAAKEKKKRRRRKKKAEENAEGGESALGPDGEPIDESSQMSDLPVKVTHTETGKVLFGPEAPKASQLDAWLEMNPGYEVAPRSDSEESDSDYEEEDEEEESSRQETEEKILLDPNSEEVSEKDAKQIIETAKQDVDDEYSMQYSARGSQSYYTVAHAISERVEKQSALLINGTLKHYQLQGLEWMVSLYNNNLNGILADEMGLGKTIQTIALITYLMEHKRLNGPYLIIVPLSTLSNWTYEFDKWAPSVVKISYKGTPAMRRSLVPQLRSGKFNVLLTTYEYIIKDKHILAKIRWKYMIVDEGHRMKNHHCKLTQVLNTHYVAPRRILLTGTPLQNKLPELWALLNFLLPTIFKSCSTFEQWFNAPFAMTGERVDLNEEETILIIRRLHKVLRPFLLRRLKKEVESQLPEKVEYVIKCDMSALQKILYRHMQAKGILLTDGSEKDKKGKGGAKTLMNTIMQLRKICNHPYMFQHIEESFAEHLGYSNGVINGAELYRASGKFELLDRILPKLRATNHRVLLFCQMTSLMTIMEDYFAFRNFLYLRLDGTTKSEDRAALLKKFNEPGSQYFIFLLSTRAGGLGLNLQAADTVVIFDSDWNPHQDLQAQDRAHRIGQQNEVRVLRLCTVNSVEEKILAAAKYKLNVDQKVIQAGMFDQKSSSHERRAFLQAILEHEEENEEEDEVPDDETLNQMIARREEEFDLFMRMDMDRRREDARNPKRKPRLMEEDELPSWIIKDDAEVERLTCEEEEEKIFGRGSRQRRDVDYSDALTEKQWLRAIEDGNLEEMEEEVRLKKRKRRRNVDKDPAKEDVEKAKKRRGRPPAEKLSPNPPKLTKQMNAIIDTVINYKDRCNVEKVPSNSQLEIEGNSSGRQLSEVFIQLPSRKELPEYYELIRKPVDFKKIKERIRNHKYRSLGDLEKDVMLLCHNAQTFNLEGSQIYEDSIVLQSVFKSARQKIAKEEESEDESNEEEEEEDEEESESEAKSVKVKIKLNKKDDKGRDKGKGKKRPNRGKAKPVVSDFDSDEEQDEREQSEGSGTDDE
Sequence of Galanin receptor type 3 (O60755 whole entry): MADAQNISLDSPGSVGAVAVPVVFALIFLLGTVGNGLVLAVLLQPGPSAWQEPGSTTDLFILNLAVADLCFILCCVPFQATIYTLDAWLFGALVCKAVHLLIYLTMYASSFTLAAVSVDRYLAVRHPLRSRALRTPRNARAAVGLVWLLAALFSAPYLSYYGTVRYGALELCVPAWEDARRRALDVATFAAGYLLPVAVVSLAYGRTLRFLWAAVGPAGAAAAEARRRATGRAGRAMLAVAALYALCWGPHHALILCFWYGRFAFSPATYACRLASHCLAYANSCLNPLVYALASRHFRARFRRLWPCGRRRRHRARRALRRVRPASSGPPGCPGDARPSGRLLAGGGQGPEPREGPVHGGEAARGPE
Sequence of Beta-galactosidase (Q8VNN2 whole entry): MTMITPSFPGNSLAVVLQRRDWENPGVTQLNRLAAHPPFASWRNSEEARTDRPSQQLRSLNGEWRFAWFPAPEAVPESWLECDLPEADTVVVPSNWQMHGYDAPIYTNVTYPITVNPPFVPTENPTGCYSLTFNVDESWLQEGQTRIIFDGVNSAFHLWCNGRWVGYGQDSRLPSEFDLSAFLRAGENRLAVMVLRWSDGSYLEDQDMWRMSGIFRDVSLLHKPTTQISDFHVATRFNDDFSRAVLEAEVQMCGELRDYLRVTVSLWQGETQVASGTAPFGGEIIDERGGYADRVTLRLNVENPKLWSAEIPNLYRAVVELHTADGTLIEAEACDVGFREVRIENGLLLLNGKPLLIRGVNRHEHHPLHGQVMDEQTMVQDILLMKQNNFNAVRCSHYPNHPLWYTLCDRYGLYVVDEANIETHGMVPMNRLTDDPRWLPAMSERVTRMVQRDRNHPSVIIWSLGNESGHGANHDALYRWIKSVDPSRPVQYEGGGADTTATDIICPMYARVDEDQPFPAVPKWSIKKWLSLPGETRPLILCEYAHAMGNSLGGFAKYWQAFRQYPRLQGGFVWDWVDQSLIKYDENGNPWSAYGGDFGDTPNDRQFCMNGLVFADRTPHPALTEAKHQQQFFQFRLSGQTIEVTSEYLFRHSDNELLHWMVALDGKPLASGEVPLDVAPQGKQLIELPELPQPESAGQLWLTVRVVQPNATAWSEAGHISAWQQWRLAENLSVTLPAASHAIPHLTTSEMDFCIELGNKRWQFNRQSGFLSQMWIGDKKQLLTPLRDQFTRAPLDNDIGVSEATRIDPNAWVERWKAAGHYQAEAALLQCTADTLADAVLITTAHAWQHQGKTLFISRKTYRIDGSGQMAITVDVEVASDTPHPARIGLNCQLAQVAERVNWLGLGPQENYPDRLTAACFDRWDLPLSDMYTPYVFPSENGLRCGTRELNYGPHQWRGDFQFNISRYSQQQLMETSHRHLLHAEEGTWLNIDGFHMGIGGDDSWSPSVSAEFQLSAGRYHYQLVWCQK

## Nc1ncnc2c1ncn2[C@@H]1O[C@H](CNCc2ccc(OCC(=O)Nc3nccs3)cc2)[C@@H](O)[C@H]1O
[1]
  AC50: 32.3 µM (active)

## O=c1[nH]c2ccccc2nc1-c1cccs1
[2]
  EC50: > 91.1 µM (inactive)

## CC(C)(C)NC(=O)C(c1ccccc1F)n1c(=O)c(-c2ccco2)nc2ccccc21 (stereo not given)
[3]
  IC50: 1.85 µM (active)

## Cc1c(C(=O)NNC(=O)c2ccccc2O)oc2ccccc12
[4]
  IC50: > 94 µM (inactive)

## CC(=O)c1cccc(-c2cnc3c(NC=O)cc(-c4ccc(N5CCN(C)CC5)cc4)cn23)c1
[2]
  EC50: > 30.4 µM (inactive)
[5]
  EC50: > 91.2 µM (inactive)

## CCN(CC)CCNc1ccc(CO)c2oc3ccccc3c(=O)c12
[6]
  IC50: 22.3 µM (inactive)
[7]
  AC50: 18.7 µM (active)
[8]
  IC50: 28.4 µM (inactive)

## CCn1c(=O)c(=O)n(CC)c2cc(S(=O)(=O)Nc3cc(C)ccc3C)ccc21
[9]
  AC50: 13.6 µM (active)

## COc1ccc(/C=C\C(=O)CC(O)(c2ccccc2)C(F)(F)F)cc1 (stereo not given)
[3]
  IC50: 3.93 µM (active)

## C/N=C(\S)NNC(=O)c1cccn(Cc2cccc(Cl)c2)c1=O
[4]
  IC50: > 94.1 µM (inactive)

## CC(C)CCN=C(S)Nc1ccc2nc3n(c(=O)c2c1)CCCCC3
[1]
  AC50: 39.4 µM (active)

## CCCCCCNc1cc2n(c(=O)n1)CCc1cc(OC)c(OC)cc1-2
[10]
  AC50: 101 µM (active)

## COc1ccc([C@H]2CC(=O)C=C(C#CC(C)(C)C)C2)cc1
[11]
  IC50: > 80 µM (inactive)

## Cc1ccc(-n2nc3c(N4CCC(C(=O)NCc5ccccc5C)CC4)nnc(C)c3c2C)cc1
[12]
  CC50: 27.8 µM (active)
[13]
  IC50: 16.2 µM (inactive)
[14]
  IC50: 8.76 µM (active)

## Cc1ccc(C2CC(C(F)(F)F)n3nc(C(=O)NCc4ccco4)cc3N2)cc1 (stereo not given)
[15]
  AC50: 1.94 µM (active)

## COc1ccc(C(=O)Nc2cccc(NC(=O)c3cccs3)c2)cc1
[9]
  AC50: 4.26 µM (active)

## O=C(NNC(=S)Nc1ccc(Cl)cc1)c1ccccc1
[16]
  IC50: > 122 µM (inactive)

## COC(=O)Nc1nnc(-c2ccccc2OC)s1
[17]
  IC50: 1.9 µM (active)

## COc1ccc(CNC(=O)NCCc2c[nH]c3ccccc23)cc1
[15]
  AC50: 1.87 µM (active)

## O=C(c1cc2ccccc2o1)N1CCN(S(=O)(=O)c2ccc(F)c(F)c2F)CC1
[11]
  IC50: > 80 µM (inactive)

## Oc1nc2ccccc2nc1-c1cccs1
[5]
  EC50: > 91.1 µM (inactive)

## CCCCn1c(NS(=O)(=O)c2ccc(C)cc2)c(C(=O)OCC)c2nc3ccccc3nc21
[18]
  IC50: > 128 µM (inactive)

## CN1Cc2c(N3CCOCC3)nc3sc(C#N)c(N)c3c2CC1(C)C
[17]
  IC50: 1.06 µM (active)

## N#Cc1ccccc1CSc1ccc(-c2nc3ccccc3[nH]2)cn1
[19]
  EC50: > 79.4 µM (not active)
[20]
  EC50: > 79.4 µM (inactive)
[21]
  EC50: > 79.4 µM (not active)
[22]
  IC50: 26.5 µM (inactive)

## O=C(COC(=O)c1ccc(Cl)nc1)Nc1nnc(-c2ccccc2)o1
[10]
  AC50: 115 µM (active)

## CSc1nc(N)c(C#N)c(-c2ccccc2Cl)c1C#N
[23]
  IC50: 7.09 µM (active)
[24]
  EC50: > 29.9 µM (inactive)

## NC(=O)c1cn(-c2ccccc2)nc1-c1cc2ccccc2oc1=O
[23]
  IC50: 13 µM (inactive)
[24]
  EC50: > 29.9 µM (inactive)

## O=C(Nc1cc(F)cc(F)c1)c1ccc(NCCc2ccccc2)c([N+](=O)[O-])c1
[25]
  EC50: 88.4 µM (inactive)
[26]
  EC50: > 99 µM (inactive)
[6]
  IC50: 26.2 µM (inactive)
[8]
  IC50: 14 µM (active)
